Reference: patent US7932266B2, “Isoquinoline derivatives as calpain inhibitors” (Consejo Superior de Investigaciones Cientificas, priority 2004, dated 2011)

Assays:
calpain = test: Calpain inhibition, first results on earlier isoquinoline derivatives; assay type: biochemical; conditions: simple derivative of isoquinoline without peptide chain; applicant's first results
[1] = biological target: T1, calpain I from porcine erythrocyte (Sus scrofa, UniProt P35750); test: Enzyme activity test: inhibition of calpain (fluorimetric, BODIPY-FL casein substrate); assay type: biochemical; conditions: 7 inhibitor concentrations between 10 nM and 200 μM
T1 construct: calpain I from porcine erythrocyte (Calbiochem, Cat No 208712) was used as enzyme; purchased Calbiochem 208712; host or cells: porcine erythrocyte (natural source)
T1 sequence (P35750 1-714): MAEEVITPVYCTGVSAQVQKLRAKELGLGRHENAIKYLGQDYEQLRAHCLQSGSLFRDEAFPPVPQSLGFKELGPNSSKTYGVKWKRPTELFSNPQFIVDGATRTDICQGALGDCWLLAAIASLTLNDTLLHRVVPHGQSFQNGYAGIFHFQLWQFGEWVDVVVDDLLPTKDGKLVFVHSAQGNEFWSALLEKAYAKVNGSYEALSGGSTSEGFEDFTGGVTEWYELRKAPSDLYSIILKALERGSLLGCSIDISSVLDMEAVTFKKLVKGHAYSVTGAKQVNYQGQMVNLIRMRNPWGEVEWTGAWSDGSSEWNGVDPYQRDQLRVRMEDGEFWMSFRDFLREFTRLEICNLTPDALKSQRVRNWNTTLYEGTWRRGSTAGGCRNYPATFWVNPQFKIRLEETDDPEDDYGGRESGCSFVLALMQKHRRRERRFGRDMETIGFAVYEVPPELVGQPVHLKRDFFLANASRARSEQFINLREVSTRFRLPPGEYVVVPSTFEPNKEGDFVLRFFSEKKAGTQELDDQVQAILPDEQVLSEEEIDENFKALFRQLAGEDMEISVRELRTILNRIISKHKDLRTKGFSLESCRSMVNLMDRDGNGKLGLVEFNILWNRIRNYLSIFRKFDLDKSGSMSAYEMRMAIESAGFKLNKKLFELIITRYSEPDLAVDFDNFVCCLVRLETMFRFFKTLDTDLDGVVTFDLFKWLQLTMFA
T1 sequence (P04574 1-266 partner): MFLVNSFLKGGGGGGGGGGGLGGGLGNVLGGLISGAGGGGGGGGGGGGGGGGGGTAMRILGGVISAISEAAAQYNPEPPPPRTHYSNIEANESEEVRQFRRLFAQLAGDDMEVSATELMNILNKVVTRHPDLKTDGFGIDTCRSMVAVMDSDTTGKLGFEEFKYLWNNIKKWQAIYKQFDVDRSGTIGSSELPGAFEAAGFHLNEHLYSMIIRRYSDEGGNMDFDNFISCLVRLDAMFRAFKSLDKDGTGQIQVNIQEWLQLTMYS
Text: The capacity to inhibit calpain has been quantified in terms of the value of IC50, which is defined as the concentration of inhibitor that reduces the catalytic activity of an enzyme by half. The lower the value of IC50, the more powerful the inhibitor. Inhibition results on calpain I (the most relevant from a physiological point of view) of some compounds of the present invention are shown in table 1 and in FIG. 1. Given that calpain II, also known as milli-calpain, needs a greater amount of Ca^2+ for activation, it might not possibly have such a relevant physiological role since such a concentration of Ca^2+ would cause cell death before the milli-calpain could become activated. For this reason, the inhibition tests have been performed for calpain I, though they can be extrapolated for calpain II.
The calpain inhibition capacity has been quantified in terms of the value of IC50, which is defined as the concentration of inhibitor that reduces the catalytic activity of an enzyme by half. The lower the value of IC50, the more powerful the inhibitor. Inhibition results on calpain I (the most relevant from a physiological point of view) of some compounds of the present invention are shown in table 1 and in FIG. 1.
The experiments were conducted spectrofluorimetrically using a Spectrofluor Tecan Corp 93382 spectrofluorimeter, exciting at […] and measuring at […]. Casein marked with BODIPY-FL® (Molecular Probes) was used as substrate and calpain I from porcine erythrocyte (Calbiochem, Cat No 208712) was used as enzyme. The freeze-dried substrate is component A of the protease assay kit EnzChek® green fluorescence from Molecular Probes (reference # E-6638); component B, known as 20× digestion buffer, contains 13 mL of 200 mM Tris-HCl, pH 7.8 and 2 mM sodium azide. The commercial calpain I that was used has a concentration of 1 mg in 1 mL of aqueous solution (the solution is 20 mM imidazol-HCl, pH 6.8, 1 mM EDTA, 1 mM EGTA, 5 mM β-mercaptoethanol, containing 30% glycerine).
2.5 mL of 20× digestion buffer (component B of the kit from Molecular Probes) was diluted with water to a total volume of 50 mL.
200 μg of freeze-dried substrate (component A of the kit from Molecular Probes) was dissolved in 200 μL of phosphate saline buffer. This solution was decanted into a graduated flask and diluted with the digestion solution to a total volume of 40 mL.
20 μL of commercial solution of calpain was diluted with the digestion solution to a total volume of 200 μL.
The inhibitor was dissolved in DMSO. Each inhibitor was assayed at 7 different concentrations between 10 nM and 200 μM.
All the data were obtained measuring the variation in fluorescence with time. The use of a multi-cell device and Eppendorf multi-channel pipettes permitted measurement of the variation in fluorescence in up to 64 experiments. In this way, the control experiment and the experiments with the different concentrations of inhibitor was carried out in the same set of measurements. All the experiments were conducted twice.
The control experiment was carried out mixing 180 μL of casein solution and 5 μL of calpain solution. The reaction was initiated by the addition of 10 μL of a 50 μM solution of CaCl2 in water, and the fluorescence was measured from the moment of the addition of Ca^2+ (time=0) and for 250-300 seconds (measuring during 20 kinetic cycles). The variation in fluorescence (ΔF) was represented against time (t). In order to test the effect of DMSO on enzyme activity, additional control experiments were conducted adding DMSO (in the quantities used in the experiments with the inhibitors), with the same result being obtained as in the control experiment.
180 μL of casein solution, 5 μL of calpain solution and 5 μL of inhibitor solution (of variable concentration) were mixed together. […]

SMILES | activity as calpain inhibitor (calpain) | IC50 [1] [µM] | melting point [°C]
COC(=O)/C=C1/c2ccccc2C(=O)N[C@H]1C(C)C [Compound 3] | not calpain inhibitors |  | 
CC[C@H](C)[C@@H]1NC(=O)c2ccccc2/C1=C/C(=O)NCc1ccccc1 [Compound 15, (S,S,Z)-N-benzyl-2-(3-sec-butyl-1-oxo-2,3-dihydro-1H-isoquinolin-4-yliden)-acetamide] |  | 140 | 90 to 94
CC[C@H](C)[C@@H]1NC(=S)c2ccccc2/C1=C/C(=O)OC [Compound 28, methyl (S,S,Z)-(3-sec-butyl-1-thioxo-2,3-dihydro-1H-isoquinolin-4-yliden)-acetate] |  | 38 | 50 to 53
CC[C@H](C)[C@@H]1NC(=O)c2ccccc2/C1=C/C(=O)OCc1ccc(COC(=O)/C=C2/c3ccccc3C(=O)N[C@H]2[C@@H](C)CC)cc1 [Compound 14] |  | 5 | 213 to 215
CC[C@H](C)[C@@H]1NC(=O)c2ccccc2/C1=C/C(=O)Nc1cccc(C(C)=O)c1 [Compound 16, (S,S,Z)-N-(3-acetyl-phenyl)-2-(3-sec-butyl-1-oxo-2,3-dihydro-1H-isoquinolin-4-yliden)-acetamide] |  | 130 | 147 to 151
CC[C@H](C)[C@H](NC(=O)OCC1c2ccccc2-c2ccccc21)C(=O)Nc1ccccc1-c1ccccc1NC(=O)/C=C1/c2ccccc2C(=O)N[C@H]1[C@@H](C)CC [Compound 21, (S,S,S,S,Z)-9H-fuorene-9-ylmethyl (1-{2′-[2-(3-sec-butyl-1-oxo-2,3-dihydro-1 H-isoquinolin-4-yliden)-acetylamino]-biphenyl-2-ylcarbamoyl}-2-methyl-butyl)-carbamate] |  | 5 | 116 to 120
CCC(C)C1NC(=O)c2ccccc2/C1=C/C(=O)OC/C=C\COC(=O)/C=C1/c2ccccc2C(=O)N[C@H]1[C@@H](C)CC (stereo partly shown) [Compound 12] |  | 85 | 79 to 81
